{"source": "the kinase profiling compilation of Christmann-Franck et al. (2016)", "assay_in_all_cases": "KINOMEscan competition binding", "conditions_in_all_cases": "compound 10.0 µM", "key": {"FGR (human)": {"biological_target": "FGR (human) (UniProt P09769)", "sequence (P09769 whole entry, looked up)": "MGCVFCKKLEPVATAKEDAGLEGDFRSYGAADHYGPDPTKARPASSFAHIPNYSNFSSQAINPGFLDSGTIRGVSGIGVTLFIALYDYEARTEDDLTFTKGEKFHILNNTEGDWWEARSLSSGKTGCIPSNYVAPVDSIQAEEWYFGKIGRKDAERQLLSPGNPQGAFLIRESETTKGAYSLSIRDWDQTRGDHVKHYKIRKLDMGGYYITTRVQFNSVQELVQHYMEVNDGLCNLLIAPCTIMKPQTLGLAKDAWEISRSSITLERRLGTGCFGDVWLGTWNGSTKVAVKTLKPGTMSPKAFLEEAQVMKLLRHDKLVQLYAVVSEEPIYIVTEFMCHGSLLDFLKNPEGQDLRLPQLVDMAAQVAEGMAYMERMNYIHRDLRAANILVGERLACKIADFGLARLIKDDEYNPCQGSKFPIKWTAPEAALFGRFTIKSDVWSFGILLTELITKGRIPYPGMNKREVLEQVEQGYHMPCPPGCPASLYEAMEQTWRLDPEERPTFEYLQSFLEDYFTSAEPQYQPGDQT"}, "EGFR (human)": {"biological_target": "EGFR (human) (UniProt P00533)", "sequence (P00533 whole entry, looked up)": "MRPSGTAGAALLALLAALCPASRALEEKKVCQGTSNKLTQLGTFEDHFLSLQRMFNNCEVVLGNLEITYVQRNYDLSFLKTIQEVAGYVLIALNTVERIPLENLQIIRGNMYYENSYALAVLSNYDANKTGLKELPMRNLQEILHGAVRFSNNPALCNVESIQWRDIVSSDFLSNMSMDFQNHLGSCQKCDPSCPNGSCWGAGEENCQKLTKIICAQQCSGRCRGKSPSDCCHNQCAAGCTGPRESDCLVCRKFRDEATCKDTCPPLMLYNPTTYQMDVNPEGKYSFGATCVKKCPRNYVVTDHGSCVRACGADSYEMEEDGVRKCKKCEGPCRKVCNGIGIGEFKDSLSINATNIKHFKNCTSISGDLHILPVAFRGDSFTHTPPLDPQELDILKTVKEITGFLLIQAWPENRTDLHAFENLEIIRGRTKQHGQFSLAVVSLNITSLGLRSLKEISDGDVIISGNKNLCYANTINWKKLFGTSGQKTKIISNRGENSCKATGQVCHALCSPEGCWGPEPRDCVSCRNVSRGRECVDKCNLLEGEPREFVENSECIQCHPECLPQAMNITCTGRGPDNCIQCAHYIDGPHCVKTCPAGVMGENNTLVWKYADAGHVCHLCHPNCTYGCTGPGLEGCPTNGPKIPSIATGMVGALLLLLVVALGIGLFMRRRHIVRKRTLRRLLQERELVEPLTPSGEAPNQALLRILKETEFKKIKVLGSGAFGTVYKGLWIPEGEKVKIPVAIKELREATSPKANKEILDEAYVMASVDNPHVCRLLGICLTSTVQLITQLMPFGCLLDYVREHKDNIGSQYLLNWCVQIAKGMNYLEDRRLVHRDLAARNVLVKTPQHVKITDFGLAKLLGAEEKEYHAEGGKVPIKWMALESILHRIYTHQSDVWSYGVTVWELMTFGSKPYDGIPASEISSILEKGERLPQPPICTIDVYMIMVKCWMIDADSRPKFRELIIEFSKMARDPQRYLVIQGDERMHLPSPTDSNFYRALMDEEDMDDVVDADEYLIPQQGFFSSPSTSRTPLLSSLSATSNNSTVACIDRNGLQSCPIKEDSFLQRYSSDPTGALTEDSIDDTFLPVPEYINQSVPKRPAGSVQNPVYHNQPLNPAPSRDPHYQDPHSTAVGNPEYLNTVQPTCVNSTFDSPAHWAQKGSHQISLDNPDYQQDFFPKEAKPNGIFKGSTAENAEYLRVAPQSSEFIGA"}, "[1]": {"test_system": "MET (human), P08581 [Y1235D]"}, "RIOK1 (human)": {"biological_target": "RIOK1 (human) (UniProt Q9BRS2)", "sequence (Q9BRS2 whole entry, looked up)": "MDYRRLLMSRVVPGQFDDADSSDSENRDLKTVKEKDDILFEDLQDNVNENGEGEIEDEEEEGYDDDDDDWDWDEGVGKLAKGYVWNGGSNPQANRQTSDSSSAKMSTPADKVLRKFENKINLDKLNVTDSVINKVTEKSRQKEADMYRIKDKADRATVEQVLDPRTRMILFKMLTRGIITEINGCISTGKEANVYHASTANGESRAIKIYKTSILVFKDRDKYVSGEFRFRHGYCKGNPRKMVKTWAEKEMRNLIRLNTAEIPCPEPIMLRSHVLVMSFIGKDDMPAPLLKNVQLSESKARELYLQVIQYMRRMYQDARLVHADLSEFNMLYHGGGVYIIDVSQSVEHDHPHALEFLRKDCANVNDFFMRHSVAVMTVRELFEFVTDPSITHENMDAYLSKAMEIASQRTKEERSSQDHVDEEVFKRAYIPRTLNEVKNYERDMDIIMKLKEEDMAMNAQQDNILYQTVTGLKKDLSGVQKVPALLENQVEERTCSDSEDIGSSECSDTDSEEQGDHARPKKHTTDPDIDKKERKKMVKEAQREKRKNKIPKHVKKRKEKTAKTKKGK"}}, "data": [{"smiles": "Cc1cc([C@@H](C)Nc2ccccc2C(=O)O)c2nc(N3CCOCC3)cc(=O)n2c1", "values": [{"measurement": "kinase still bound, per cent of control", "setting": "FGR (human)", "value": 76, "unit": "%"}, {"measurement": "kinase still bound, per cent of control", "setting": "EGFR (human)", "value": 100, "unit": "%"}, {"measurement": "kinase still bound, per cent of control", "setting": "[1]", "value": 93, "unit": "%"}, {"measurement": "kinase still bound, per cent of control", "setting": "RIOK1 (human)", "value": 75, "unit": "%"}]}]}
